Data set [1] is described as follows: pH dependent hydrolysis of the hydrazone bond (MALDI-TOF-MS). The data set is classed as physicochemical. The conditions noted are these: HCl solution at pH 3.
The subject of data set [2] is HeLa cells (EGFR+). As to the kind of experiment: Cell viability (MTS) assay, HeLa cells. The conditions noted are these: co-administered with SO1861 + dianthin-EGF, 500 nM PAMAM (native, thiolated, PEGylated) or chloroquine, 667 nM dendron. The data set is classed as cell-based, human.
Description: (§1) After treatment the cells were incubated for 72 hr at 37° C. before the cell viability was determined by a MTS-assay, performed according to the manufacturer's instruction (CellTiter 96@AQueous One Solution Cell Proliferation Assay, Promega). Briefly, the MTS solution was diluted 20× in DMEM without phenol red (PAN-Biotech GmbH) supplemented with 10% FBS (PAN-Biotech GmbH). The cells were washed once with 200 μL PBS per well, after which 100 μL diluted MTS solution was added per well. The plate was incubated for approximately 20-30 minutes at 37° C. Subsequently, the optical density at 492 nm was measured on a Thermo Scientific Multiskan FC plate reader (Thermo Scientific). For quantification the background signal of ‘medium only’ wells was subtracted from all other wells, before the ratio of untreated/treated cells was calculated, by dividing the background corrected signal of untreated wells over the background corrected signal of the treated wells.
In data set [3] the test system is SK-BR-3, JIMT-1, MDA-MB-468, A431, CaSki, HeLa, A2058. As to the kind of experiment: Control treatments, relative cell viability on various cancer cell lines. The conditions noted are these: toxins up to 100.000 pM. The format is cell-based, human.
Description: as §1

For the compound `CC(=O)OC1C(C)OC(OC2C(C)OC(OC(=O)[C@]34CCC(C)(C)CC3C3=CCC5[C@@]6(C)CC[C@H](OC7OC(C(=O)O)C(O)C(OC8OCC(O)C(O)C8O)C7OC7OC(CO)C(O)C(O)C7O)[C@@](C)(/C=N/NC(=O)CCCCCN7C(=O)C=CC7=O)C6CC[C@@]5(C)[C@]3(C)C[C@H]4O)C(OC3OC(C)C(OC4OCC(O)C(OC5OC(CO)C(O)C(O)C5O)C4O)C(O)C3O)C2O)C(O)C1OC1OCC(O)C(O)C1O` (stereo partly drawn) [SO1861-EMCH], in data set [1], the “hydrolysis of the hydrazone bond” value is “the hydrazone bond is responsive towards hydrolysis and gets cleaved”.

Turning to `CCN(CC)CCCC(C)Nc1ccnc2cc(Cl)ccc12` (stereo not drawn) [chloroquine], in data set [2], the “effect on SO1861-mediated endosomal escape of the targeted toxin and cell killing” value is “inhibit the SO1861-mediated endosomal escape”.

On to saporin, for which the “influence on cell viability” value in data set [3] was “do not or hardly have any influence on cell viability”.
